The text below walks through data of publication PMC8175309, “Translational CNS Steady-State Drug Disposition Model in Rats, Monkeys, and Humans for Quantitative Prediction of Brain-to-Plasma and Cerebrospinal Fluid-to-Plasma Unbound Concentration Ratios” (The AAPS Journal, 2021).

Read-outs that look alike come from different tables or passages of the source.

The conditions of series [1]: cited from earlier work.
In another series the target is MDR1 (Homo sapiens, UniProt P08183). Put plainly: in vitro. The settings on record: dog, MDCK-MDR1, pH 7.4. The procedure:
(§1) To the compounds available internally, in vitro efflux ratios for MDR1 and BCRP were determined by the following procedure (Supplemental Table 2). Test compound stock solutions in dimethyl sulfoxide (DMSO) were diluted in transport buffer (Hanks’ balanced salt solution (HBSS) with 10 mM HEPES, pH 7.4) to a concentration of 1 μM (DMSO < 1%) and applied to the apical or basolateral side of a cell monolayer derived from Madin-Darby canine kidney (MDCK)-MDR1 and MDCK-BCRP cells. Permeation of the test compounds from apical to basolateral (A to B) direction or B to A direction was measured in duplicate. The plate was incubated for 1 h in a CO2 incubator at 37±1°C with 5% CO2 at saturated humidity without shaking. In addition, the efflux ratio of each compound was also determined. Test and reference compounds were quantified by LC-MS/MS analysis based on the peak area ratio of analyte/internal standard.
(§2) The apparent permeability coefficient Papp (cm/s) was calculated by using Eq. 1: 1 Papp=dCr/dt×Vr/A×C0 where dCr/dt is the cumulative concentration of the compound in the receiver chamber as a function of time (μM/s); Vr is the volume of the solution in the receiver chamber (0.075 mL on the apical side, 0.25 mL on the basolateral side); A is the surface area for transport, i.e., 0.0804 cm^2 for the area of the monolayer; and C0 is the initial concentration (μM) in the donor chamber.
(§3) The efflux ratio was calculated using Eq. 2: 2 Efflux ratio=Papp,BtoA/Papp,AtoB

The conditions of series [2]: cited from earlier work. This is another data set of the same source.
Another series deals with T1, BCRP (Homo sapiens, UniProt Q9UNQ0).
T1 sequence (Q9UNQ0 1-655): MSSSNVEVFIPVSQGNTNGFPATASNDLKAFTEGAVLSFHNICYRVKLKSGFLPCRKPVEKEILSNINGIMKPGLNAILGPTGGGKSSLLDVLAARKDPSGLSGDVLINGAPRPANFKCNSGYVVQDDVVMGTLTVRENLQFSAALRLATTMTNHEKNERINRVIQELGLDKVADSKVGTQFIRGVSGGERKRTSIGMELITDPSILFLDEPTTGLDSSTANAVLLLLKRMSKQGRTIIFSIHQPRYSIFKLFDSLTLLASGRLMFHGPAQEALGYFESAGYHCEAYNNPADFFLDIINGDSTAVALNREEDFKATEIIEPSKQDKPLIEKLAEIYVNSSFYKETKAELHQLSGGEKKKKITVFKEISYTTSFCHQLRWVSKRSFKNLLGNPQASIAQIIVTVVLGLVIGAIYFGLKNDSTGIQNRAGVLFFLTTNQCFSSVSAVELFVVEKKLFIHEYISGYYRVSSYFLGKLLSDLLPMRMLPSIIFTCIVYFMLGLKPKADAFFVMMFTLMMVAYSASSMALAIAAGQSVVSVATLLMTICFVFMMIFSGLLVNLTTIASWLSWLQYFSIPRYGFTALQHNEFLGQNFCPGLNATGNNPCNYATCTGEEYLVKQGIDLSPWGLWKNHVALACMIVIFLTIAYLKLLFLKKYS
Put plainly: Transcellular transport across MDCK-BCRP cell monolayers (efflux ratio). Conditions: dog, pH 7.4. The procedure: as §1, §2, §3

The nature of the next series: in vivo. The settings on record: rat, in vivo. Here is the method: The CSF samples collected from cisterna magna in rats were stored at –80°C until analysis by liquid chromatography-tandem mass spectrometry (LC-MS/MS). Before performing the LC-MS/MS analysis, these samples were thawed on ice and mixed with three volumes of acetonitrile. The acetonitrile mixtures were vortexed and centrifuged, and the supernatant was collected. After dilution with mobile phase A (a mixture of 10 mM ammonium formate and formic acid at 100:0.2 (v/v)), the supernatant was injected into the LC-MS/MS system.
To perform correlation analyses between the observed Kp,uu,brain and Kp,uu,CSF, and the model-based prediction of Kp,uu,brain and Kp,uu,CSF, data from literature information were integrated into the internally obtained data for these assessments (Supplemental Table 2) ([17],[22]–[24],[27]–[33]). When only the total concentrations in plasma, CSF, and brain were available, the total concentration ratio in plasma to CSF or brain (Kp,CSF or Kp,brain, respectively) was estimated, followed by calculation of Kp,uu,CSF or Kp,uu,brain based on Eqs.

For series [3] the following is noted: cited from earlier work. The source holds these as a separate data set.
Setting [4] is: monkey, *8 ref Uchida et al. (31).
The mark [5] stands for this setting: monkey, *9 ref Nagaya et al. (19).

Sequence of MDR1 (P08183 whole entry): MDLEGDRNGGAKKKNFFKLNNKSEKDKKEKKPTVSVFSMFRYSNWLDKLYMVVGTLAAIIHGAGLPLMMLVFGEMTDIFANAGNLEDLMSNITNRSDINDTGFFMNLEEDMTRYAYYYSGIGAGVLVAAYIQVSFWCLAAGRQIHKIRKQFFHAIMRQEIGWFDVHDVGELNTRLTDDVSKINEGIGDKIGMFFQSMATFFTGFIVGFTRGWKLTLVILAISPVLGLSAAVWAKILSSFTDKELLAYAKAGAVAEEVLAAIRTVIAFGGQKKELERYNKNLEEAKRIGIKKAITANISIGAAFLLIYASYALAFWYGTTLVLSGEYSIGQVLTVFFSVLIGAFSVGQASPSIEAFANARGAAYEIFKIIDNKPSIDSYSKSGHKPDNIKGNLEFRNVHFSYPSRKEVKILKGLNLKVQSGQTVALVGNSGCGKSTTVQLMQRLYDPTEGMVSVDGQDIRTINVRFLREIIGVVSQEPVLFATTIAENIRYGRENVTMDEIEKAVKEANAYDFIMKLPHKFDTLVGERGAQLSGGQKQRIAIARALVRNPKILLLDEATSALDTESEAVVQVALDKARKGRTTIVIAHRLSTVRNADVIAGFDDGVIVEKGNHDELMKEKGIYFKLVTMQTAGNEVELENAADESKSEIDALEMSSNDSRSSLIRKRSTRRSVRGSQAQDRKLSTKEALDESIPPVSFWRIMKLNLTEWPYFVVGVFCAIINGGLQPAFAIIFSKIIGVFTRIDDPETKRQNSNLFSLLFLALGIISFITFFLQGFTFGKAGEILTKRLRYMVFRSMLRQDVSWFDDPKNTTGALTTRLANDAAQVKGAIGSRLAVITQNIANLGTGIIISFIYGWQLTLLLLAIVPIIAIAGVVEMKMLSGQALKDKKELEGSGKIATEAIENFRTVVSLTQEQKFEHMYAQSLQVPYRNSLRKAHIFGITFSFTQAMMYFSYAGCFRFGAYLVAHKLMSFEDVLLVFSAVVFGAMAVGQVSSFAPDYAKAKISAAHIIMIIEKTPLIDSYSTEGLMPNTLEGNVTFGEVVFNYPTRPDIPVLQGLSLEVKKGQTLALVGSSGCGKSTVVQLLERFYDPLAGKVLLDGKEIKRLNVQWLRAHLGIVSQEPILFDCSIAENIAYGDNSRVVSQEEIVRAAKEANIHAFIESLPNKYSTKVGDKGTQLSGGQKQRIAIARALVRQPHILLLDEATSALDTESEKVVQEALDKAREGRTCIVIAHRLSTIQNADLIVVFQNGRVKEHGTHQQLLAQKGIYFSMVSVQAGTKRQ

On to `CN(C)C(=O)C(CCN1CCC(O)(c2ccc(Cl)cc2)CC1)(c1ccccc1)c1ccccc1` [Loperamide], for which the “Kp,uu,brain Monkey” value in series [1] (setting [4]) is reported as 0.04. Also, the efflux ratio at 1 h, 1 μM turned out to be 92 at MDR1 and 0.97 on BCRP. The “Kp,uu,brain Rat” value is given as 0.024 in series [2] (*3 ref Summerfield et al. (25)), 0.007 in series [2] (*4 ref Friden et al. (21)) and 0.00896 in series [2] (*7 ref Kodaira et al. (20)). Besides, the “Kp,uu,CSF Rat” value is listed as 0.037 in series [2] (*4 ref Friden et al. (21)) and 0.038 in series [2] (*7 ref Kodaira et al. (20)).
Turning to `C=C[C@H]1C[N@@]2CC[C@H]1C[C@@H]2[C@@H](O)c1ccnc2ccc(OC)cc12` [Quinidine], the “Kp,uu,brain Monkey” value in series [1] (setting [4]) was 0.0744; in series [1] (setting [5]), 0.0658. For the same compound, the “Kp,uu,CSF Monkey” value in series [1] (setting [5]) is 0.169. Further, the “Kp,uu,CSF Rat” value in series [2] (*7 ref Kodaira et al. (20)) is listed as 0.0911. Further, in series [2] (*7 ref Kodaira et al. (20)), the “Kp,uu,brain Rat” value was 0.026. Besides, on BCRP, the efflux ratio at 1 h, 1 μM came out at 0.9. Also, the results for the Kp uu in “in vivo” (Kp,uu,CSF Rat) and in “in vivo” (Kp,uu,brain Rat) were 0.419 and 0.0359, respectively.
For `Cc1cc(=O)n(-c2ccccc2)n1C` [Antipyrine], the “Kp,uu,CSF Monkey” value in series [1] (cynomolgus monkey, in vivo) is listed as 1.05. Moreover, the “Kp,uu,brain Monkey” value in series [1] (cynomolgus monkey, in vivo) is on record as 0.857. For the same compound, the efflux ratio at 1 h, 1 μM at MDR1 was 0.9; at BCRP, 1. In addition, the Kp uu is 0.944 in the series “in vivo” (Kp,uu,CSF Rat) and 0.857 in the series “in vivo” (Kp,uu,brain Rat).
With `NC(=O)N1c2ccccc2C=Cc2ccccc21` [Carbamazepine], in series [1] (setting [5]), the “Kp,uu,CSF Monkey” value is given as 1.19. Also, in series [1] (setting [5]), the “Kp,uu,brain Monkey” value was 1.27. Further, the efflux ratio at 1 h, 1 μM turned out to be 1.3 on MDR1 and 0.9 on BCRP. Moreover, the “Kp,uu,brain Rat” value in series [2] (*3 ref Summerfield et al. (25)) is reported as 0.39; in series [2] (*7 ref Kodaira et al. (20)), 0.771. Further, the “Kp,uu,CSF Rat” value in series [2] (*7 ref Kodaira et al. (20)) is listed as 0.535. Besides, the “Kp,uu,brain Human” value in series [3] (*3 ref Summerfield et al. (25)) is reported as 0.55. In addition, in series [3] (*10 ref Gatti et al. (28)), the “Kp,uu,CSF Human” value is on record as 1.00. Moreover, the figures for the Kp uu in the series “in vivo” (Kp,uu,CSF Rat) and in “in vivo” (Kp,uu,brain Rat) were 0.752 and 0.8, respectively.
